Measured values taken from PubChem BioAssay (NCI).
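In this assay, cells in 96-well plates receive the compound at five concentrations for 48 hours. Endpoints are linearly interpolated between the surrounding concentrations. Definition used: TGI = concentration required for complete inhibition of growth.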

Experiments:
Assay in all cases: NCI-60 cell line screen, 48 h
UACC-257 melanoma = test system: UACC-257 melanoma
SF-295 CNS = test system: SF-295 CNS
MDA-MB-435 = test system: MDA-MB-435
IGROV1 ovarian = test system: IGROV1 ovarian
OVCAR-4 ovarian = test system: OVCAR-4 ovarian
OVCAR-8 ovarian = test system: OVCAR-8 ovarian
ACHN renal = test system: ACHN renal
HS 578T breast = test system: HS 578T breast
M14 melanoma = test system: M14 melanoma
COLO 205 colon = test system: COLO 205 colon
MCF7 breast = test system: MCF7 breast
U251 CNS = test system: U251 CNS
MALME-3M melanoma = test system: MALME-3M melanoma
NCI-H226 lung = test system: NCI-H226 lung
HCC-2998 colon = test system: HCC-2998 colon
SR leukemia = test system: SR leukemia
OVCAR-3 ovarian = test system: OVCAR-3 ovarian
MDA-N = test system: MDA-N
KM12 colon = test system: KM12 colon
HCT-15 colon = test system: HCT-15 colon
SW-620 colon = test system: SW-620 colon
NCI-H23 lung = test system: NCI-H23 lung
786-0 renal = test system: 786-0 renal
K-562 leukemia = test system: K-562 leukemia
EKVX NSCLC = test system: EKVX NSCLC
UACC-62 melanoma = test system: UACC-62 melanoma
HOP-62 NSCLC = test system: HOP-62 NSCLC
SN12C renal = test system: SN12C renal
HT29 colon = test system: HT29 colon
SK-MEL-28 melanoma = test system: SK-MEL-28 melanoma
RXF 393 renal = test system: RXF 393 renal
CCRF-CEM leukemia = test system: CCRF-CEM leukemia
SF-539 CNS = test system: SF-539 CNS
SNB-75 CNS = test system: SNB-75 CNS
SF-268 CNS = test system: SF-268 CNS
CAKI-1 renal = test system: CAKI-1 renal
UO-31 renal = test system: UO-31 renal
A549 NSCLC = test system: A549 NSCLC
RPMI-8226 leukemia = test system: RPMI-8226 leukemia
PC-3 prostate = test system: PC-3 prostate
HCT-116 colon = test system: HCT-116 colon
MOLT-4 leukemia = test system: MOLT-4 leukemia
HL-60(TB) leukemia = test system: HL-60(TB) leukemia
SNB-19 CNS = test system: SNB-19 CNS
SK-MEL-5 melanoma = test system: SK-MEL-5 melanoma
BT-549 breast = test system: BT-549 breast
OVCAR-5 ovarian = test system: OVCAR-5 ovarian
NCI/ADR-RES ovarian = test system: NCI/ADR-RES ovarian
NCI-H460 lung = test system: NCI-H460 lung
LOX IMVI melanoma = test system: LOX IMVI melanoma
SK-OV-3 ovarian = test system: SK-OV-3 ovarian
A498 renal = test system: A498 renal
TK-10 renal = test system: TK-10 renal
MDA-MB-231 breast = test system: MDA-MB-231 breast
DU-145 prostate = test system: DU-145 prostate
T-47D breast = test system: T-47D breast
NCI-H522 lung = test system: NCI-H522 lung

`O=C(C(=O)c1cc(-c2ccccc2)nc2ccc3ccccc3c12)c1ccccc1` was tested, and the TGI (UACC-257 melanoma) was > 100 µM, the TGI (SF-295 CNS) was > 100 µM and the TGI (MDA-MB-435) was > 100 µM. For the same molecule, the TGI (IGROV1 ovarian) was > 100 µM, the TGI (OVCAR-4 ovarian) was 49.8 µM and the TGI (OVCAR-8 ovarian) was > 100 µM. The TGI (ACHN renal) was > 100 µM, the TGI (HS 578T breast) was 81.4 µM and the TGI (M14 melanoma) was > 100 µM. For the same molecule, the TGI (COLO 205 colon) was > 100 µM, the TGI (MCF7 breast) was > 100 µM and the TGI (U251 CNS) was > 100 µM. For the same molecule, the TGI (MALME-3M melanoma) was > 100 µM, the TGI (NCI-H226 lung) was > 100 µM and the TGI (HCC-2998 colon) was > 100 µM. The TGI (SR leukemia) was > 100 µM, the TGI (OVCAR-3 ovarian) was > 100 µM and the TGI (MDA-N) was > 100 µM. For the same molecule, the TGI (KM12 colon) was > 100 µM, the TGI (HCT-15 colon) was > 100 µM and the TGI (SW-620 colon) was > 100 µM. For the same molecule, the TGI (NCI-H23 lung) was > 100 µM, the TGI (786-0 renal) was > 100 µM and the TGI (K-562 leukemia) was > 100 µM. The TGI (EKVX NSCLC) was > 100 µM, the TGI (UACC-62 melanoma) was > 100 µM and the TGI (HOP-62 NSCLC) was > 100 µM. For the same molecule, the TGI (SN12C renal) was > 100 µM, the TGI (HT29 colon) was > 100 µM and the TGI (SK-MEL-28 melanoma) was > 100 µM. For the same molecule, the TGI (RXF 393 renal) was > 100 µM, the TGI (CCRF-CEM leukemia) was > 100 µM and the TGI (SF-539 CNS) was > 100 µM. The TGI (SNB-75 CNS) was 40.7 µM, the TGI (SF-268 CNS) was > 100 µM and the TGI (CAKI-1 renal) was > 100 µM. The TGI (UO-31 renal) was > 100 µM, the TGI (A549 NSCLC) was > 100 µM and the TGI (RPMI-8226 leukemia) was > 100 µM. For the same molecule, the TGI (PC-3 prostate) was > 100 µM, the TGI (HCT-116 colon) was 39 µM and the TGI (MOLT-4 leukemia) was > 100 µM. The TGI (HL-60(TB) leukemia) was 78.7 µM, the TGI (SNB-19 CNS) was > 100 µM and the TGI (SK-MEL-5 melanoma) was > 100 µM. The TGI (BT-549 breast) was > 100 µM, the TGI (OVCAR-5 ovarian) was > 100 µM and the TGI (NCI/ADR-RES ovarian) was > 100 µM. The TGI (NCI-H460 lung) was > 100 µM, the TGI (LOX IMVI melanoma) was > 100 µM and the TGI (SK-OV-3 ovarian) was > 100 µM. The TGI (A498 renal) was > 100 µM, the TGI (TK-10 renal) was > 100 µM and the TGI (MDA-MB-231 breast) was > 100 µM. The TGI (DU-145 prostate) was > 100 µM.

With `Cc1cccc(NS(=O)(=O)c2ccc3c(c2)OCCOCCOCCOCCO3)c1` the TGI (UACC-257 melanoma) was > 100 µM, the TGI (SF-295 CNS) was > 100 µM and the TGI (MDA-MB-435) was > 100 µM. For the same molecule, the TGI (IGROV1 ovarian) was > 100 µM, the TGI (OVCAR-8 ovarian) was > 100 µM and the TGI (ACHN renal) was > 100 µM. For the same molecule, the TGI (HS 578T breast) was > 100 µM, the TGI (M14 melanoma) was > 100 µM and the TGI (COLO 205 colon) was > 100 µM. For the same molecule, the TGI (MCF7 breast) was > 100 µM, the TGI (MALME-3M melanoma) was > 100 µM and the TGI (NCI-H226 lung) was > 100 µM. For the same molecule, the TGI (HCC-2998 colon) was > 100 µM, the TGI (SR leukemia) was > 100 µM and the TGI (MDA-N) was > 100 µM. For the same molecule, the TGI (KM12 colon) was > 100 µM, the TGI (HCT-15 colon) was > 100 µM and the TGI (SW-620 colon) was > 100 µM. The TGI (NCI-H23 lung) was > 100 µM, the TGI (786-0 renal) was > 100 µM and the TGI (K-562 leukemia) was > 100 µM. For the same molecule, the TGI (EKVX NSCLC) was > 100 µM, the TGI (UACC-62 melanoma) was > 100 µM and the TGI (HOP-62 NSCLC) was > 100 µM. For the same molecule, the TGI (T-47D breast) was > 100 µM, the TGI (SN12C renal) was > 100 µM and the TGI (HT29 colon) was > 100 µM. For the same molecule, the TGI (SK-MEL-28 melanoma) was > 100 µM, the TGI (CCRF-CEM leukemia) was > 100 µM and the TGI (SF-539 CNS) was > 100 µM. The TGI (SNB-75 CNS) was > 100 µM, the TGI (SF-268 CNS) was > 100 µM and the TGI (CAKI-1 renal) was > 100 µM. The TGI (UO-31 renal) was > 100 µM, the TGI (A549 NSCLC) was > 100 µM and the TGI (RPMI-8226 leukemia) was > 100 µM. The TGI (PC-3 prostate) was > 100 µM, the TGI (HCT-116 colon) was > 100 µM and the TGI (MOLT-4 leukemia) was > 100 µM. For the same molecule, the TGI (HL-60(TB) leukemia) was > 100 µM, the TGI (SNB-19 CNS) was > 100 µM and the TGI (SK-MEL-5 melanoma) was > 100 µM. For the same molecule, the TGI (BT-549 breast) was > 100 µM, the TGI (NCI-H460 lung) was > 100 µM and the TGI (SK-OV-3 ovarian) was > 100 µM. The TGI (A498 renal) was > 100 µM, the TGI (TK-10 renal) was > 100 µM and the TGI (MDA-MB-231 breast) was > 100 µM. The TGI (NCI-H522 lung) was 65.5 µM and the TGI (DU-145 prostate) was > 100 µM.
